The results in this text go back to PubChem BioAssay AID1918944 (Molecular Pharmacology Branch, DTP, NCI, 2023).

For this assay, the system named is 786-0 complex spheroid viability. Nature of the assay: Anticancer human tumor 786-0 cell line growth inhibition.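 As to all read-outs here: spheroids exposed to agents for seven days before readout.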 Particulars: for viability, T/C: stronger effect = lower value. The text has this:
Multicellular complex tumor spheroid response to LSD1 Inhibitor Iadademstat in combination with a variety of drugs and investigational agents in selected tumor cell lines
The current study was undertaken to assess response to LSD1 inhibitors in combination with standard-of-care drugs and investigational agents in solid tumor complex spheroid models as well as in the K-562 leukemia. Complex spheroids include a stromal component modeled by human endothelial cells (HUVEC) and fibroblasts modeled by human mesenchymal stem cells (MSCs). The concentration ranges selected for each drug and investigational agent were based upon clinically achievable concentrations if the clinical Cmax of the agent was known.
Compounds. The drugs and investigational agents used in this study are listed on Table 1. All of the agents used, including staurosporine (NSC755774) and gemcitabine (NSC613327), were obtained from the Developmental Therapeutics Program, NCI. FDA-approved anticancer drugs are available from the NCI at http://dtp.nci.nih.gov/branches/dscb/oncology_drugset_explanation.html. Drugs and investigational agents were >95% pure by proton nuclear magnetic resonance (NMR) and liquid chromatography/mass spectrometry (LC/MS). Stock solutions were prepared at 400x in DMSO, stored at -70 degrees C, and diluted in fresh medium prior to their use. The final concentration of DMSO in cell culture wells never exceeded 0.25% (v/v). The FDA-approved anticancer drug set is available from the Developmental Therapeutics Program at https://dtp.cancer.gov/organization/dscb/obtaining/available_plates.htm. All drugs and investigational agents were tested over a range starting from a high concentration at or near the clinical Cmax and decreasing in half-log increments. If the clinical Cmax for an agent had not been determined, the highest concentration tested was 10 microM.
Cell Lines. The patient-derived cancer cell (PDC) lines: 292921-168-R-J2-PDC, K24384-001-R-PDC, and 521955-158-R2-J5-PDC pancreatic carcinomas, 556581-035-R-J1 ovarian carcinoma, 324938-238-R-J1-PDC, 855422-203-R-J1-PDC and 883617-216-R-J1-PDC urothelial bladder carcinomas, 743489-274-T-PDC renal cell carcinoma, 138582-R-J1 Merkel cell tumor, K60290-347-R-J1 and K57222-313-R-J1-PDC glioblastomas, 653999-131-R-J2-PDC, LG0703-F948-PDC, and 349418-098-R-PDC non-small cell lung carcinomas, 885512-296-R-J2-PDC, 171881-019-R-J1-PDC breast carcinomas and 186277-243-T-J2-PDC and 233499-124-R-J2-PDC colon carcinomas were obtained from the NCI Patient-Derived Models Repository (PDMR, https://pdmr.cancer.gov). The established cell lines NCI/ADR-RES (RRID:CVCL_14520 and OVCAR-5 (RRID:CVCL_1628) ovarian carcinomas, 786-O (RRID:CVCL_1051) and A498 (RRID:CVCL_A498) renal cell carcinoma, NCI-H211 (ATCC, cat. CRL-5824; RRID:CVCL_1529), NCI-H196 (ATCC, cat. CRL-5823, RRID:CVCL_1509), SW 1271 (ATCC, cat. CRL-2177, RRID:CVCL_1716) and NCI-H1876 (ATCC, cat. CRL-5902, RRID:CVCL_1503) small cell lung carcinomas, MDA-MB-231 (RRID:CVCL_0062) and MDA-MB-468 (RRID:CVCL_0419)breast carcinomas (10-12). Pooled donor human umbilical vein endothelial cells (HUVEC, Lonza, cat. CC-2519) and human mesenchymal stem cells (hMSC, Lonza, cat. PT-2501) were purchased from Lonza (Walkersville, MD).
Cell Culture. All cells were maintained in an incubator at 37 degrees C and 5% CO2 with 95% humidity. The PDC lines were cultured according to standard operating procedures established by the NCI PDMR (https://pdmr.cancer.gov). Briefly all PDCs were thawed and cultured in Matrigel-coated flasks prepared with a working solution of 1X Ham's F-12 nutrient mix, without supplementation (Invitrogen, Waltham, MA, cat. 11765054), 100 U/mL penicillin-streptomycin (Invitrogen, cat. 15140122), and 2.5% Matrigel (Corning Inc., Corning, NY, cat. 354248) for the first three passages. […]

The mark [1] stands for this setting: curve of first compound, second compound 0.1 µM.
Setting [2] is: curve of first compound, second compound 0.316 µM.
[3] abbreviates: curve of first compound, second compound 1 µM.
[4] abbreviates: curve of first compound, second compound 3.16 µM.
The mark [5] stands for this setting: curve of first compound, second compound 10 µM.

Structures are written as SMILES. Several values for one entry are separate records, joined by “and”; a condition that tells them apart may be missing. Equal values may be shown once.

For the compound `COc1cc(C2c3cc4c(cc3C(OC3OC5COC(C)OC5C(O)C3O)C3COC(=O)C23)OCO4)cc(OC)c1O` (centres undefined) + NC1CC1c1ccc(-c2cccc(O)c2)cc1, the concentration for half-maximal inhibition (IC50) runs as follows: under setting [1], 212 nM; under setting [2], 247 nM; under setting [3], 174 nM; under setting [4], 183 nM; under setting [5], 162 nM. Moreover, the viability, T/C is 96.6% (second compound 0.1 µM, first compound 0.00949 µM); 88.2% (second compound 0.1 µM, first compound 0.03 µM); 63.9% (second compound 0.1 µM, first compound 0.0949 µM); 42.5% (second compound 0.1 µM, first compound 0.3 µM); 26.9% (second compound 0.1 µM, first compound 0.949 µM); 12.1% (second compound 0.1 µM, first compound 3 µM). Besides, the viability, T/C (second compound 0.316 µM, first compound 0.00949 µM) is 105%; the viability, T/C (second compound 0.316 µM, first compound 0.03 µM) was 95.8%; the viability, T/C (second compound 0.316 µM, first compound 0.0949 µM) was 66.2%; the viability, T/C (second compound 0.316 µM, first compound 0.3 µM) was 47.1%; the viability, T/C (second compound 0.316 µM, first compound 0.949 µM) is 25.8%; the viability, T/C (second compound 0.316 µM, first compound 3 µM) was 9.93%. For the same compound, the viability, T/C by setting is: (second compound 1 µM, first compound 0.00949 µM) 93.1%; (second compound 1 µM, first compound 0.03 µM) 89.4%; (second compound 1 µM, first compound 0.0949 µM) 57.9%; (second compound 1 µM, first compound 0.3 µM) 40.2%; (second compound 1 µM, first compound 0.949 µM) 22%; (second compound 1 µM, first compound 3 µM) 10.9%. The viability, T/C was 90.7% (second compound 3.16 µM, first compound 0.00949 µM); 82.9% (second compound 3.16 µM, first compound 0.03 µM); 59.2% (second compound 3.16 µM, first compound 0.0949 µM); 43.3% (second compound 3.16 µM, first compound 0.3 µM); 20.8% (second compound 3.16 µM, first compound 0.949 µM); 10.3% (second compound 3.16 µM, first compound 3 µM). In addition, the viability, T/C is 80.6% (second compound 10 µM, first compound 0.00949 µM); 76.6% (second compound 10 µM, first compound 0.03 µM); 54.3% (second compound 10 µM, first compound 0.0949 µM); 42.5% (second compound 10 µM, first compound 0.3 µM); 22.6% (second compound 10 µM, first compound 0.949 µM); 8.94% (second compound 10 µM, first compound 3 µM).
Regarding `COc1ccc([C@@H](O)c2cc(-c3ncnc4cc(N5CCOCC5)ccc34)c(F)cc2Cl)nn1` + NC1CC1c1ccc(-c2cccc(O)c2)cc1, the IC50 runs as follows: under setting [1], 3590 nM; under setting [2], 4960 nM; under setting [3], 3760 nM; under setting [4], 2790 nM; under setting [5], 2200 nM. Further, the viability, T/C runs as follows: (second compound 0.1 µM, first compound 0.0316 µM) 98.2%; (second compound 0.1 µM, first compound 0.1 µM) 100%; (second compound 0.1 µM, first compound 0.316 µM) 96.2%; (second compound 0.1 µM, first compound 1 µM) 79.2%; (second compound 0.1 µM, first compound 3.16 µM) 52%; (second compound 0.1 µM, first compound 10 µM) 37%. In addition, the viability, T/C reads like this: (second compound 0.316 µM, first compound 0.0316 µM) 108%; (second compound 0.316 µM, first compound 0.1 µM) 110%; (second compound 0.316 µM, first compound 0.316 µM) 102%; (second compound 0.316 µM, first compound 1 µM) 86.9%; (second compound 0.316 µM, first compound 3.16 µM) 56.2%; (second compound 0.316 µM, first compound 10 µM) 40%. In addition, the viability, T/C is 101% (second compound 1 µM, first compound 0.0316 µM); 92.9% (second compound 1 µM, first compound 0.1 µM); 93% (second compound 1 µM, first compound 0.316 µM); 80% (second compound 1 µM, first compound 1 µM); 51.7% (second compound 1 µM, first compound 3.16 µM); 38% (second compound 1 µM, first compound 10 µM). The viability, T/C by setting is: (second compound 3.16 µM, first compound 0.0316 µM) 90.1%; (second compound 3.16 µM, first compound 0.1 µM) 93.7%; (second compound 3.16 µM, first compound 0.316 µM) 88.2%; (second compound 3.16 µM, first compound 1 µM) 78.1%; (second compound 3.16 µM, first compound 3.16 µM) 46.3%; (second compound 3.16 µM, first compound 10 µM) 38.4%. Further, the viability, T/C was 92.3% (second compound 10 µM, first compound 0.0316 µM); 84.5% (second compound 10 µM, first compound 0.1 µM); 81.3% (second compound 10 µM, first compound 0.316 µM); 65.7% (second compound 10 µM, first compound 1 µM); 41.8% (second compound 10 µM, first compound 3.16 µM); 34.7% (second compound 10 µM, first compound 10 µM).
In the case of `NS(=O)(=O)OCC1CC(n2ccc3c(NC4CCc5ccccc54)ncnc32)CC1O` (centres undefined), the viability, T/C reads like this: (compound 0.00949 µM) 99.2% and 89.2%; (compound 0.03 µM) 84.4% and 87.8%; (compound 0.0949 µM) 66.8% and 85.6%; (compound 0.3 µM) 23.5% and 34.7%; (compound 0.949 µM) 6.87% and 15.1%; (compound 3 µM) 6.08% and 15.5%. For the setting “curve of compound”, the IC50 is 144 nM and 212 nM.
`Nc1ccccc1NC(=O)c1ccc(CNC(=O)OCc2cccnc2)cc1`: the viability, T/C (compound 0.00949 µM) is 98.3% and 104%; the viability, T/C (compound 0.03 µM) was 103% and 113%; the viability, T/C (compound 0.0949 µM) was 102% and 108%; the viability, T/C (compound 0.3 µM) was 93.9% and 93.5%; the viability, T/C (compound 0.949 µM) was 68% and 73.5%; the viability, T/C (compound 3 µM) is 14.8% and 23%. The 50% inhibitory concentration (IC50) (curve of compound) is 1400 nM and 1610 nM.
